Assays:
[1] = target: T1, GLP-1R (Homo sapiens, UniProt P43220); test: EndoC cAMP Accumulation Assay; type: cell-based; details: EndoC-βH1 human pancreatic β cell line; HTRF cAMP accumulation
T1 construct: host or cells: EndoC-βH1 human pancreatic beta cell line
Description: EndoC cAMP Accumulation Assay
A HTRF cAMP assay (cAMP Gs dynamic kit; CisoBio Cat #62AM4PEJ) was used to identify agonists of GLP-1R in a pancreatic insulinoma cell line (EndoC-⊕H1). […] EndoC-PHlcells have detectable GLP-1R messenger ribonucleic acid (mRNA) as detected by quantitative polymerase chain reaction (qPCR). […] The EndoC-PH1 cell line is a valid model of human beta cells and applicable for screenings to identify novel drug target candidates (Mol. Metab., 2018, 8, 144-157). CisBio HTRF cAMP kits are based on a competitive immunoassay using cryptate-labelled anti-cAMP antibody and d2-labeled cAMP. The detection kit is intended for the direct quantitative determination of cAMP. The specific signal (i.e. energy transfer) is inversely proportional to the concentration of cAMP in the standard or sample. Test compounds (10 mM in DMSO) were diluted into assay buffer (HBSS (Sigma #H8264) supplemented with 25 mM HEPES (Gibco #15630, pH 7.4), 0.1% BSA (Sigma #A3059) and 0.5 mM IBMX (Sigma #I7018) included fresh on the day of the assay) into 96 well U-bottom plates (Greiner #650201). Diluted compounds were transferred to ECHO source polypropylene plates (Labcyte #P-05525) and dose response curves were dispensed acoustically using ECHO 550 into black shallow-well u-bottom 384-well HTRF Assay Plates (Corning 4514).
Cryovials of EndoC-H1 (supplied at 1×10e^7 cells/vial) were used directly for screening. The cryovials and were removed from N2(l) and thawed rapidly in a 37° C. water bath. The cells were resuspended in assay buffer and centrifuged at 300 g for 5 min. Cells were resuspended in assay buffer at the appropriate concentration, typically at 12e5 cells per mL (3000 cells per well, dependent on cell batch) and 2.5 μL diluted cells were added to all wells of destination plate by Multidrop combi reagent dispenser (Thermofisher). The plates were incubated at rt for 30 min. The assay was stopped by adding 2.5 μL anti-cAMP cryptate solution to all wells and 2.5 μL cAMP-d2 solution (both diluted 1:20 in lysis buffer) to columns 1-22 by Combi drop. A volume of 2.5 μL cAMP-d2 solution was added to wells E23 to P24 and 2.5 μL lysis buffer added to wells A23 to D24 by multichannel pipette. The plates were incubated at rt for 1 h and read on an Envision plate reader using excitation wavelength of 320 mn and emission of 590 nm and 660 nm.
Raw data from Envision is converted to % DeltaF according to the manufacturer's instructions. Dose response curves are analysed via 4-Parameter Logistical Analysis and assay plate Z′ values obtained. Samples are graphed as percentage (%) activation plots compared to GIP (1-42, Bachem H-5645) with assay window defined by negative control as basal cell cAMP levels and positive control are defined by maximum GIP (82.5 nM) signal. GLP-1 (7-36 amide, Bachem H-6795) dose response curve was included on all plates.

[2] = target: T2, human phosphodiesterase-3A (Homo sapiens, UniProt Q14432); test: PDE3 Assay; type: biochemical; details: human recombinant enzyme expressed in Sf9 cells; formation of 5′AMP from cAMP, SPA
T2 construct: host or cells: Sf9 (Spodoptera frugiperda)
Description: Evaluation of the effects of compounds on the activity of the human phosphodiesterase-3A is quantified by measuring the formation of 5′AMP from cAMP using a human recombinant enzyme expressed in a clonal isolate of Spodoptera frugiperda cells (Sf9) cells.
The test compound, reference compound or water (control) are added to a buffer containing 40 mM tris(hydroxymethyl)aminomethane (Tris)/HCl (pH 7.4) and 8 mM MgCl2, 450 nMcAMP and 0.25 μCi [^3H]cAMP.
Thereafter, the reaction is initiated by addition of the enzyme (about 1 U) and the mixture is incubated for 20 min at 22° C.
For basal control measurements, the enzyme is omitted from the reaction mixture.
Following incubation SPA beads are added. After 30 min at 22° C. under shaking, the amount of [^3H]5′AMP is quantified with a scintillation counter (Topcount, Packard).
The results are expressed as a percent inhibition of the control enzyme activity. The standard inhibitory reference compound is milrinone (CAS number 78415-72-2), which is tested in each experiment at several concentrations to obtain an inhibition curve from which its IC50 value is calculated.

[3] = target: T3, human GLP-1R receptor (Homo sapiens, UniProt P43220, L260F); test: CHOK1 GLP-1R cAMP Assay; type: cell-based; details: CHO-K1 cell line stably expressing human GLP-1R (Leu260Phe variant); HTRF cAMP; agonist activity
T3 construct: expressed in transfected cells; host or cells: CHO-K1 (ATCC CCL-61)
Description: A cell line stably expressing the human GLP-1R receptor (NM_002062.5, including the naturally-occurring variant Leu260Phe) in a CHO-K1 (ATCC® CCL-61™) was used for assay.
GLP-1 receptor mediated agonist activity was determined in a cell-based assay measuring cyclic adenosine monophosphate (cAMP) levels in cells using Homogeneous Time-Resolved Fluorescence (HTRF) cAMP detection kit (CisBio catalog #62AM4PEC, cAMP Gs Dynamic range kit). The cAMP detection method is based on a competitive immunoassay, in which cAMP produced by the cells and cAMP labeled with the dye d2 compete for binding to a Europium-Cryptate-labeled anti-cAMP antibody. The specific HTRF signal is inversely proportional to the concentration of cAMP.
Compounds were added to individual well in 384 well-assay plates (Greiner #784076) using an Echo (LabCyte) dispenser from 10 mM stocks. Varying concentration of compounds were added to wells, and DMSO was used to normalize each well to a volume of 100 nL. A dose response curve of GLP-1(7-36)NH2 (Bachem H-6795) was included in each run. 5 μL of cAMP concentration response standards are applied in specified wells in the assay plates. Cryo-preserved cells are thawed and resuspended in assay buffer pre-heated to 37° C. (20 mM HEPES pH 7.4, 1× Hank's Balanced Salt Solution (HBSS, Life Technologies #14065) supplemented with 0.1% (w/v) bovine serum albumin (Sigma, A-7030). Cells were centrifuged at 250*g for 5 min at rt, and resuspended in room tempered assay buffer to a final density of 0.16*10^6 cell/mL, to deliver 800 cells/well. 5 μL of assay buffer with 1 mM 3-isobutyl-1-methylxanthin (IBMX; Sigma cat I-7018) was dispensed per well in assay plates using a multidrop combi (Thermo Scientific) subsequently 5 μL of cell suspension was distributed to relevant wells in the assay using a multidrop dispenser. Assay plates were incubated 20 min at rt.
Detection reagents, Europium-Cryptate-labeled anti-cAMP antibody and cAMP labeled with the dye d2, are diluted in lysis buffer, provided by the manufacturer. 5 μL of each detection reagent is supplemented to each assay well using a multidrop dispenser. Assay plates are incubated in the dark for at least one h. The HTRF signal is measured using the HTRF module (excitation: 337 nm, emission A: 665 nm and emission B: 620 nm) in Pherastar FSX (BMG Labtech).
Raw data were converted to pM cAMP using the cAMP standard curve included in each run.
Converted data were further analyzed in Genedata Screener (Genedata) and EC50 determinations were made from agonist dose-response curves analyzed with a curve fitting program using a 4-parameter logistic dose response equation (Equation y=A+((B−A)/1+((C/x)^D))) where A is no stimulation, B is full stimulation, C is the EC50 and D is the Hill slope). The percent effect was determined relative to a saturating concentration of a full GLP-1R agonist (GLP-1(7-36)NH2 has 100% effect in this assay setup).

T1 sequence (P43220 24-463): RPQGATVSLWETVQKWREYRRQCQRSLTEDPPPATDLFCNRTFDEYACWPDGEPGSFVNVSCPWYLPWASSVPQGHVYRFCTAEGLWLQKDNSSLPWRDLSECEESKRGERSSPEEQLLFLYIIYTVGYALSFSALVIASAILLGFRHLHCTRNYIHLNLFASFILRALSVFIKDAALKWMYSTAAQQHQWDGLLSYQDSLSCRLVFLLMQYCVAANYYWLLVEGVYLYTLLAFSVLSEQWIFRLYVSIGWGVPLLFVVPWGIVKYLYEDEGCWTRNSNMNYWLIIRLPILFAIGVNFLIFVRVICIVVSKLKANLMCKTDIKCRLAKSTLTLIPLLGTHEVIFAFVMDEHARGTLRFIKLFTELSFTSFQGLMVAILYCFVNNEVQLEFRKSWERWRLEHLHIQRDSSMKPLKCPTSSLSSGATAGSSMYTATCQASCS
T3 sequence (P43220 24-463 L260F): as the sequence (P43220 24-463) above, with L237F counted along it
T2 sequence (Q14432 whole entry): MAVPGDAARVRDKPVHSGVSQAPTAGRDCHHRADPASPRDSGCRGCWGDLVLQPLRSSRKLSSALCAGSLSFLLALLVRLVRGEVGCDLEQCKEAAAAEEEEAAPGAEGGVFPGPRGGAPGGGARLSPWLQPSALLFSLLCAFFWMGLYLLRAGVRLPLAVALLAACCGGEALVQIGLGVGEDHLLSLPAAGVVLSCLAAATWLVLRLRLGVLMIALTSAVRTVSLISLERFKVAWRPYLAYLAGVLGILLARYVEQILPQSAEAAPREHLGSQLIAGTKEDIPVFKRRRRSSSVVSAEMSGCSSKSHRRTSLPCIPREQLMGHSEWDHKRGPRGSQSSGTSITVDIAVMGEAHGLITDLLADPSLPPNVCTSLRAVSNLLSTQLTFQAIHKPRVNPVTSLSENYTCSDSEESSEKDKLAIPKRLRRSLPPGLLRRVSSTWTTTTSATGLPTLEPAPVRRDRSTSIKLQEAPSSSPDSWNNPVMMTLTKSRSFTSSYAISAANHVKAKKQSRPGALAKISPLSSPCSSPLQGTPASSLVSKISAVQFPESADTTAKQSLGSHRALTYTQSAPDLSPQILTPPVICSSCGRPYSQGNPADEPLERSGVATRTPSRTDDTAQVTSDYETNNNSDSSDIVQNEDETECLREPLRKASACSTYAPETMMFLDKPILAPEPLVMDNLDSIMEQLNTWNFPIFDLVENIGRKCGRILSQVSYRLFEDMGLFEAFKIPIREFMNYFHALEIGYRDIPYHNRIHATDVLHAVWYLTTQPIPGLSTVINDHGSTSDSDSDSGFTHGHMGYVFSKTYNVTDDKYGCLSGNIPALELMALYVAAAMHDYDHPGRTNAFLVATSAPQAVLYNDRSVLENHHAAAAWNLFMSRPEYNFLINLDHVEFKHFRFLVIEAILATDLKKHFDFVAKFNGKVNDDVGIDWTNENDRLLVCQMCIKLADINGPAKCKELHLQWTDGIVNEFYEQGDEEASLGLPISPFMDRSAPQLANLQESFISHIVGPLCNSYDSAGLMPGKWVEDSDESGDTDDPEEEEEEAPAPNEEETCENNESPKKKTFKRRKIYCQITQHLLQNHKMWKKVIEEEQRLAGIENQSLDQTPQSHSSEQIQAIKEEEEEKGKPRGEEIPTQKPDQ

Row | Compound | EC50 [1] | IC50 [2] | EC50 [3]
1 | 2-(((1R,5S6R)-6-((R*)-2-(5-Chloropyridin-2-yl)-5-fluoro-2-methylbenzo[d][1,3]dioxol-4-yl)-3-azabicyclo[3.1.0]hexan-3-yl)methyl)-4-fluoro-1-(((S)-oxetan-2-yl)methyl)-1H-benzo[d]imidazole-6-carboxylic acid [Example 10a] | 13 nM | > 100000 nM | 19 nM
2 | COc1cc(C(=O)O)cc2c1nc(CN1C[C@@H]3[C@H](C1)[C@H]3c1cccc3c1O[C@](C)(c1ccc(Cl)cc1F)O3)n2CC1CCO1 (relative stereo) [Example 2, 2-(((1R,5S,6R)-6-((R*)-2-(4-Chloro-2-fluorophenyl)-2-methylbenzo[d][1,3]dioxol-4-yl)-3-azabicyclo[3.1.0]hexan-3-yl)methyl)-4-methoxy-1-(((S)-oxetan-2-yl)methyl)-1H-benzo[d]imidazole-6-carboxylic acid] | 15 nM | > 10000 nM | 14 nM
3 | C[C@@]1(c2ccc(Cl)cn2)Oc2cccc([C@H]3[C@@H]4CN(Cc5nc6c(F)cc(C(=O)O)cc6n5CCn5cccn5)C[C@@H]43)c2O1 (single isomer, unassigned) [Example 7, 1-(2-(1H-Pyrazol-1-yl)ethyl)-2-(((1R,5S,6s)-6-((R*)-2-(5-chloropyridin-2-yl)-2-methylbenzo[d][1,3]dioxol-4-yl)-3-azabicyclo[3.1.0]hexan-3-yl)methyl)-4-fluoro-1H-benzo[d]imidazole-6-carboxylic acid] | 150 nM |  | 260 nM
4 | CCn1cncc1Cn1c(CN2C[C@@H]3[C@H](C2)[C@H]3c2cccc3c2O[C@](C)(c2ccc(Cl)cn2)O3)nc2c(Cl)cc(C(=O)O)cc21 (single isomer, unassigned) [Example 12, 4-Chloro-2-(((1R,5S,6s)-6-((R*)-2-(5-chloropyridin-2-yl)-2-methylbenzo[d][1,3]dioxol-4-yl)-3-azabicyclo[3.1.0]hexan-3-yl)methyl)-1-((1-ethyl-1H-imidazol-5-yl)methyl)-1H-benzo[d]imidazole-6-carboxylic acid] | 7.5 nM |  | 30 nM
5 | CC1(c2ccc(Cl)cc2F)Oc2cccc([C@H]3[C@@H]4CN(Cc5nc6ccc(C(=O)O)cc6n5CC5CCO5)C[C@@H]43)c2O1 (stereo partly drawn) [Example 1, 2-(((1R,5S,6R)-6-(2-(4-Chloro-2-fluorophenyl)-2-methylbenzo[d][1,3]dioxol-4-yl)-3-azabicyclo[3.1.0]hexan-3-yl)methyl)-1-(((S)-oxetan-2-yl)methyl)-1H-benzo[d]imidazole-6-carboxylic acid] | 69 nM |  | 180 nM
6 | CC1(c2ccc(Cl)cn2)Oc2cccc([C@H]3[C@@H]4CN(Cc5nc6ccc(C(=O)O)cc6n5CC5CCO5)C[C@@H]43)c2O1 (stereo partly drawn) [Example 3, 2-(((1R,5S,6R)-6-(2-(5-Chloropyridin-2-yl)-2-methylbenzo[d][1,3]dioxol-4-yl)-3-azabicyclo[3.1.0]hexan-3-yl)methyl)-1-(((S)-oxetan-2-yl)methyl)-1H-benzo[d]imidazole-6-carboxylic acid] | 170 nM |  | 260 nM
7 | COc1cc(C(=O)O)cc2c1nc(CN1C[C@@H]3[C@H](C1)[C@H]3c1c(F)ccc3c1OC(C)(c1ccc(Cl)cn1)O3)n2C[C@@H]1CCO1 (stereo partly drawn) [Example 6, 2-(((1R,5S,6R)-6-(2-(5-Chloropyridin-2-yl)-5-fluoro-2-methylbenzo[d][1,3]dioxol-4-yl)-3-azabicyclo[3.1.0]hexan-3-yl)methyl)-4-methoxy-1-(((S)-oxetan-2-yl)methyl)-1H-benzo[d]imidazole-6-carboxylic acid] | 19 nM |  | 31 nM
8 | N#Cc1ccc(COc2cccc(C3CCN(Cc4nc5ccc(C(=O)O)cc5n4C[C@@H]4CCO4)CC3)n2)c(F)c1 [Ref Comp B, reference compound] |  | 11000 nM | 

Reference: patent US20250042882A1, “CERTAIN 3-AZABICYCLO[3.1.0]HEXANES AS GLP-1 RECEPTOR MODULATORS” (AstraZeneca AB, priority 2021, published 2025)
